Publication PMC8227935, “In Silico Predicted Antifungal Peptides: In Vitro and In Vivo Anti-Candida Activity” (Journal of Fungi, 2021)
No end group written: not given here.

How the values were obtained:
C. albicans SC5314 [1] = format: cell-based, Candida albicans
Procedure: The candidacidal activity of ISDPs was evaluated by conventional colony forming unit (CFU) assays, as previously described. ISDPs were tested at serial dilutions to determine the half maximal effective concentration (EC50) values. Briefly, approximately 500 germinating C. albicans SC5314 cells were suspended in 100 µL of distilled water in the presence or absence (control growth) of ISDPs. After incubation at 37 °C for 6 h, cell suspensions were plated on Sabouraud dextrose agar. CFUs were enumerated after 48–72 h of incubation at 30 °C, and candidacidal activity was determined as a percentage of CFU reduction. Each assay was carried out in triplicate and at least two independent experiments were performed for each condition. EC50 was calculated by nonlinear regression analysis using GraphPad Prism 5 software. Afterwards, the kinetics of ISDPs killing activity, at their 2× EC50 value concentration, was determined by CFU assays up to 6 h. Samples were collected for CFU determination after 5, 10, 15, 20, 30, 60, 120, 240, and 360 min incubation.
Figure 1 Time kinetics of in vitro activity of in silico designed peptides (ISDPs) against Candida albicans SC5314. Peptide concentrations were equal to their 2× EC50 values. The activity is expressed as percental killing; reported data represent mean values ± standard deviation.

[2] = system: monkey kidney epithelial cells (LLC-MK2); experiment: MTT cytotoxicity assay; format: cell-based; conditions: 200 µM peptide, 24 h, vs. 100% of untreated control cells
Procedure: MTT assay, based on the ability of metabolically active cells to convert the yellow water-soluble tetrazolium salt into formazan crystals, was used to evaluate peptide cytotoxicity against monkey kidney epithelial cells (LLC-MK2). LLC-MK2 cells were treated with ISDPs (50, 100, and 200 µM) for 24 h. Cells in medium without peptide served as control. After this period, cells were incubated with MTT (5 mg/mL, 10 μL/well) in serum-free medium for 2 h at 37 °C, the medium was removed, and the crystal formazan dye was solubilized by adding isopropanol with 5% HCl 1 M (100 μL). Absorbance was measured at 540 nm.

[3] = system: human red blood cells (hRBCs); experiment: Hemolytic activity, hemoglobin release; format: cell-based; conditions: human red blood cells (group 0 Rh+), 50 µM peptide, 37 °C, absorbance 540 nm, PBS 0%, Triton 1% 100%
Procedure: Hemolytic and cytotoxic effects were determined as previously described. In particular, ISDPs (final concentrations of 25, 50, and 100 µM) were tested for their hemolytic activities against human red blood cells (hRBCs) (group 0 Rh+). After 30 and 120 min incubation at 37 °C, the release of hemoglobin was monitored by measuring the absorbance of the supernatant at 540 nm. Controls for zero hemolysis (blank) and 100% hemolysis consisted of hRBCs suspended in PBS and Triton 1%, respectively.

C. albicans SC5314 cells = conditions: parent peptide K10S; cited from earlier work
From the text: The individual amino acid substitutions also influenced the possible mechanism of action of the peptides. […] All ISDPs were characterized by the ability to induce intracellular ROS production (Figure 5).

C. albicans SC5314 [4] = conditions: C. albicans SC5314, CFU assay; EC50 of K10S parent peptide; read-out: EC50 (95% Confidence Intervals); cited from earlier work
From the text: Table 3 In vitro candidacidal activity of in silico designed peptides (ISDPs) against C. albicans SC5314. | column: EC50 ^1 (95% Confidence Intervals)

C. albicans SC5314 [5] = conditions: C. albicans SC5314, parent K10S peptide; cited from earlier work
Procedure: Candidacidal activity of all tested peptides was very fast. After 30 min, in fact, percental killing ranged from 68% (K10S-SS) to nearly 100% (R-10S-RR and K10S-I).

C. albicans SC5314 [6] = conditions: G. mellonella larvae infected with C. albicans, treated with parent K10S peptide; controls 24 h; previous work; cited from earlier work
Procedure: Therapeutic activity of ISDPs against C. albicans infection was evaluated in G. mellonella larvae. After the inoculum of a lethal dose of yeast cells, a single injection of peptides led to a significant increase in survival of larvae in comparison with infected animals inoculated with saline. The median survival time was 48 h for larvae treated with R10S-RR and K10S-I, and 24 h for larvae treated with K10T-TT and K10S-SS, versus 24 h for the control group. In a previous work, a median survival time of 72 h was reported for larvae treated with the parent K10S peptide in comparison with 24 h for ...

KKVSMSCSAS [Peptide K10S-SS]
percental killing after 30 min (C. albicans SC5314 [1]): 68% | cell viability [2]: 92.5 ± 0.11% | hemolysis ([3]; 30 min): 2.38% | hemolysis ([3]; 120 min): 2.01%

KKVTMTCSAS [Peptide K10S]
apoptosis induction (C. albicans SC5314 cells): lack of induction of apoptotic processes | EC50 (C. albicans SC5314 [4]): 277 nM | percental killing at 30 min (C. albicans SC5314 [5]): 36.93% | median survival time (C. albicans SC5314 [6]): 72 h
